Source: patent US20250382286A1, “CO-CRYSTAL OF AFICAMTEN, AND PREPARATION METHOD THEREFOR AND USE THEREOF” (CRYSTAL PHARMACEUTICAL (SUZHOU) CO., LTD., priority 2023, published 2025)
Entries after “also recorded” stand apart in the source; their conditions may differ.

Columns and labels:
Format in all cases: physicochemical
[1] = Physical and chemical stability on storage (XRPD, HPLC)
Protocol: Chemical purity and crystalline form were tested by HPLC and XRPD.

[2] = Hygroscopicity and humidity stability by DVS
Protocol: DVS data in the present disclosure were measured via an SMS (Surface Measurement Systems Ltd.) intrinsic DVS instrument. The instrument control software is DVS-Intrinsic control software. Typical Parameters for DVS test are as follows: • Temperature: 25° C. • Gas and flow rate: N2, 200 mL/min • RH range: 0% RH to 95% RH
DVS analyzer was applied to evaluate the hygroscopicity of Form CSI with an appropriate amount. The mass changes at each relative humidity were recorded in a cycle of 0% RH-95%RH-0%RH. The crystalline form of the sample before and after DVS were tested by XRPD.

[3] = Stability under mechanical force (ball milling); conditions: milled 5 minutes at 500 rpm, XRPD
Protocol: The crystalline form of the sample before and after ball milling were tested by XRPD, and the XRPD overlay is depicted in FIG. 6.

[4] = 25° C./60% RH, 9 months, sealed container
[5] = 40° C./75% RH, 9 months, sealed container
[6] = 60° C./75% RH, 3 months, sealed container

With CCc1nc(-c2ccc3c(c2)CC[C@H]3NC(=O)c2cnn(C)c2)no1.CCc1nc(-c2ccc3c(c2)CC[C@H]3NC(=O)c2cnn(C)c2)no1.O=C(O)C(O)C(O)C(=O)O [Form CSI] the “Time stable on storage (no change of crystalline form)” value ([1]; 25° C./60% RH) was “at least 9 months”, the Purity [1, 4] was 99.98% and the Solid form [1, 4] was “Form CSI”. The “Time stable on storage (no change of crystalline form)” value ([1]; 40° C./75% RH) was “at least 9 months”, the Purity [1, 5] was 99.99% and the Solid form [1, 5] was “Form CSI”. The “Time stable on storage (no change of crystalline form)” value ([1]; 60° C./75% RH) was “at least 3 months”, the Purity [1, 6] was 99.98% and the Solid form [1, 6] was “Form CSI”. For the same compound, the Purity ([1]; Initial) was 99.98%, the Solid form ([1]; Initial) was “Form CSI” and the “Mass increase (weight gain) at 80% RH” value ([2]; DVS, 25° C., equilibrium at 80% RH) was 0.18%. The “Crystalline form after humidity cycle” value ([2]; cycle of 0% RH-95%RH-0%RH, XRPD) was “remains unchanged” and the “Crystalline form after ball milling” value [3] was “doesn't change; also recorded: no form change”.
